Laboratory results: patent publication US5744121A (priority 1996, dated 1998)
Like-named read-outs stand apart in the source and are kept apart here. Each block holds one molecule with its values, some of them ahead of it.

How the values were obtained:
5-HT1A receptor [1] = conditions: cited from earlier work
other receptors = conditions: cited from earlier work
[2] = target: T1, 5-HT1A receptor (rat hippocampal homogenates) (Rattus norvegicus, UniProt P19327); experiment: Inhibition of [^125 I]-8-OH-PIPAT binding to rat hippocampal homogenates; conditions: ligand [^125 I]-8-OH-PIPAT
T1 construct: in rat hippocampal membrane preparations; from tissue; host or cells: rat hippocampus (membrane preparations / tissue homogenates)
T1 sequence (P19327 1-422): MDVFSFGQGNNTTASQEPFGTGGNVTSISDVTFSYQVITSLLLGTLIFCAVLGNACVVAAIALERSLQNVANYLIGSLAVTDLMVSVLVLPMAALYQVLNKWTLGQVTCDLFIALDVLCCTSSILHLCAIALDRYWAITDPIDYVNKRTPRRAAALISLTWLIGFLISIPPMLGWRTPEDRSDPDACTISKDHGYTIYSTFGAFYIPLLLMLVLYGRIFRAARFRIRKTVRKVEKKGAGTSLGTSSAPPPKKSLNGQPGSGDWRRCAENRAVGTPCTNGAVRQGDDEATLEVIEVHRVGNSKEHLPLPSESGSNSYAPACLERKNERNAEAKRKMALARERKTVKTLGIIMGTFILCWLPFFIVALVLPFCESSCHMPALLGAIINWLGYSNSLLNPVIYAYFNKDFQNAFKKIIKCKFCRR
Text: The 5-HT1A binding affinity of p-, m-, o- MPPI, p-fluoro- and p-nitro-MPP derivatives (1a-f) in rat hippocampal membrane preparations with [^123 ]

5-HT1A receptor [3] = experiment: Blocking studies: regional brain uptake ratios in rats; assay type: in vivo; conditions: 30 min post iv injection of tracer
Description: In order to further characterize the in vivo brain uptake of 1a in rats, blocking studies were carried out to determine changes of the ratios of regional brain uptake. […] Ratios for each region were calculated based on the % dose/gram of each region divided by the same in CB. […] (HP: hippocampus; CB: cerebellum; HY: hypothalamus; CX: cortex; ST: striatum).

[4] = Biodistribution in rats after iv injection; assay type: in vivo, Male Sprague-Dawley rats; conditions: average of 3 rats ± SD
Description: Male Sprague-Dawley rats (225-300 g), allowed free access to food and water, were used for an in vivo biodistribution study. While the rats were under ether anesthesia, 0.2 mL of a saline solution containing [^123 I]1a and 1b (8-10 μCi) was injected directly into the femoral vein, and rats were sacrificed at various time points postinjection by cardiac excision under ether anesthesia. The organs of interest were removed and weighed and the radioactivity was counted with a Packard […] automatic counter (Model 5000). The percentage dose per organ was calculated by a comparison of the tissue counts to suitably diluted aliquots of the injected material.

5-HT1A receptor [5] = experiment: Regional brain distribution in rats after iv injection; assay type: in vivo, Male Sprague-Dawley rats; conditions: ^123 I labeled, iv
[6] = as above; assay type: in vivo, Male Sprague-Dawley rats; conditions: rat; for tissue uptake at 0.5 h: 30 min; for tissue uptake at 2 h: 120 min
[7] = target: T1, 5-HT1A receptor (rat hippocampal homogenates); experiment: Inhibition of [^125 I]-p-MPP binding to rat hippocampal homogenates; conditions: ligand [^125 I]-p-MPP, rat hippocampal homogenates; read-out: Ki
[8] = test system: serotonin (5-HT1A) receptor; experiment: Selectivity for serotonin 5-HT1A receptor; assay type: binding
α1 receptor = conditions: relative to 5-HT1A; cited from earlier work
[9] = Partition coefficient (octanol/phosphate); assay type: physicochemical; conditions: octanol/0.1M phosphate, pH 7.0; read-out: P.C (partition coefficient) (converted)
Text: P.C = 1800 (octanol/0.1M phosphate, pH 7.0)

[10] = Stability of the radiolabelled product on storage; assay type: physicochemical; conditions: -20° C., at least four weeks, HPLC; 40320 min
[11] = cerebellum, iv, rats (Table III), read-out: Regional distribution, cerebellum
[12] = cortex, iv, rats (Table III), read-out: Regional distribution, cortex
[13] = hippocampus, iv, rats (Table III), read-out: Regional distribution, hippocampus
[14] = hypothalamus, iv, rats (Table III), read-out: Regional distribution, hypothalamus
[15] = striatum, iv, rats (Table III), read-out: Regional distribution, striatum

SMILES: COc1ccccc1N1CCN(CCCCNC(=O)C23CC4CC(CC(C4)C2)C3)CC1 [4-[4-(1-adamantanecarboxamido)-butyl] 1-(2-methoxyphenyl)piperazine]
Kd (5-HT1A receptor [1]; 5-HT1A receptor): 0.4 nM | binding affinity to other receptors (other receptors): devoid of binding affinity to other receptors

SMILES: COc1ccccc1N1CCN(CCN(C(=O)c2ccc(I)cc2)c2ccccn2)CC1 [Compound 1a, 4-(2'-methoxy)phenyl-1-[2'-(N-2"-pyridinyl)-p-iodobenzamido]ethyl piperazine]
Ki [2]: 2.6 ± 0.7 nM | HP/CB ratio (5-HT1A receptor [3]; (±)8-OH-DPAT pretreated (2 mg/kg, iv, 5 min prior)): 1.21 | HP/CB ratio (5-HT1A receptor [3]; WAY 100635 pretreated (1 mg/kg, iv, 20 min prior)): 1.07 | HP/CB ratio (5-HT1A receptor [3]; control (no pretreatment)): 3.69 | Brain uptake ([4]; 2 min): 1.22 % dose/organ | 5-HT1A related specific uptake (regional distribution pattern in rat brain) (5-HT1A receptor [5]): displayed the 5-HT1A related specific uptake | tissue uptake at 1 h ([6]; hippocampus, 60 minutes after iv injection, ^123 I labeled, read-out: Uptake in hippocampal tissue): 0.13 %ID/g | Ki [7]: 0.96 ± 0.1 nM | selectivity/affinity for serotonin 5-HT1A receptor [8]: unique high affinity and selectivity toward serotonin 5-HT1A sites

SMILES: COc1ccccc1N1CCN(CCCCN2C(=O)c3ccccc3C2=O)CC1 [NAN-190, 1-(2-methoxyphenyl)-4-[4-(2-phthalimido)butyl]piperazine]
Ki (5-HT1A receptor [1]; 5-HT1A affinity): 0.6 nM | potency for the α1 receptor (α1 receptor): equal potency for the α1 receptor

logD [9]: 3.26 | Blood uptake ([4]; 2 min): 4.49 ± 0.55 % dose/organ | Brain uptake ([4]; 2 min): 1.22 ± 0.22 % dose/organ | Heart uptake ([4]; 2 min): 0.91 ± 0.09 % dose/organ | Kidney uptake ([4]; 2 min): 5.20 ± 0.44 % dose/organ | Liver uptake ([4]; 2 min): 14.2 ± 3.1 % dose/organ | Lung uptake ([4]; 2 min): 2.39 ± 0.10 % dose/organ | Muscle uptake ([4]; 2 min): 11.29 ± 4.15 % dose/organ | Skin uptake ([4]; 2 min): 8.34 ± 1.22 % dose/organ | Spleen uptake ([4]; 2 min): 0.37 ± 0.13 % dose/organ | Thyroid uptake ([4]; 2 min): 0.09 ± 0.02 % dose/organ | Blood uptake ([4]; 30 min): 4.04 ± 1.24 % dose/organ | Brain uptake ([4]; 30 min): 0.22 ± 0.01 % dose/organ | Heart uptake ([4]; 30 min): 0.18 ± 0.04 % dose/organ | Kidney uptake ([4]; 30 min): 1.74 ± 0.49 % dose/organ | Liver uptake ([4]; 30 min): 8.71 ± 0.20 % dose/organ | Lung uptake ([4]; 30 min): 0.48 ± 0.05 % dose/organ | Muscle uptake ([4]; 30 min): 7.58 ± 2.48 % dose/organ | Skin uptake ([4]; 30 min): 8.24 ± 1.60 % dose/organ | Spleen uptake ([4]; 30 min): 0.14 ± 0.02 % dose/organ | Thyroid uptake ([4]; 30 min): 0.03 ± 0.02 % dose/organ | Blood uptake ([4]; 60 min): 2.73 ± 0.09 % dose/organ | Brain uptake ([4]; 60 min): 0.12 ± 0.005 % dose/organ | Heart uptake ([4]; 60 min): 0.13 ± 0.02 % dose/organ | Kidney uptake ([4]; 60 min): 1.06 ± 0.23 % dose/organ | Liver uptake ([4]; 60 min): 7.53 ± 0.99 % dose/organ | Lung uptake ([4]; 60 min): 0.31 ± 0.04 % dose/organ | Muscle uptake ([4]; 60 min): 4.34 ± 0.91 % dose/organ | Skin uptake ([4]; 60 min): 4.51 ± 1.00 % dose/organ | Spleen uptake ([4]; 60 min): 0.11 ± 0.04 % dose/organ | Thyroid uptake ([4]; 60 min): 0.02 ± 0.007 % dose/organ | Blood uptake ([4]; 120 min): 2.05 ± 0.30 % dose/organ | Brain uptake ([4]; 120 min): 0.05 ± 0.002 % dose/organ | Heart uptake ([4]; 120 min): 0.07 ± 0.003 % dose/organ | Kidney uptake ([4]; 120 min): 0.62 ± 0.11 % dose/organ | Liver uptake ([4]; 120 min): 5.16 ± 1.01 % dose/organ | Lung uptake ([4]; 120 min): 0.18 ± 0.002 % dose/organ | Muscle uptake ([4]; 120 min): 2.14 ± 0.15 % dose/organ | Skin uptake ([4]; 120 min): 5.82 ± 4.37 % dose/organ | Spleen uptake ([4]; 120 min): 0.07 ± 0.009 % dose/organ | Thyroid uptake ([4]; 120 min): 0.02 ± 0.01 % dose/organ | tissue uptake at 2 min [6, 11]: 0.64 ± 0.08 %ID/g | tissue uptake at 0.5 h [6, 11]: 0.07 ± 0.006 %ID/g | tissue uptake at 1 h ([6]; cerebellum, 60 min, iv, rats (Table III), read-out: Regional distribution, cerebellum): 0.04 ± 0.001 %ID/g | tissue uptake at 2 h [6, 11]: 0.024 ± 0.0002 %ID/g | tissue uptake at 2 min [6, 12]: 0.91 ± 0.06 %ID/g | tissue uptake at 0.5 h [6, 12]: 0.11 ± 0.01 %ID/g | tissue uptake at 1 h ([6]; cortex, 60 min, iv, rats (Table III), read-out: Regional distribution, cortex): 0.061 ± 0.002 %ID/g | tissue uptake at 2 h [6, 12]: 0.026 ± 0.002 %ID/g | tissue uptake at 2 min [6, 13]: 0.87 ± 0.18 %ID/g | tissue uptake at 0.5 h [6, 13]: 0.23 ± 0.007 %ID/g | tissue uptake at 1 h ([6]; hippocampus, 60 min, iv, rats (Table III), read-out: Regional distribution, hippocampus): 0.127 ± 0.009 %ID/g | tissue uptake at 2 h [6, 13]: 0.04 ± 0.003 %ID/g | tissue uptake at 2 min [6, 14]: 0.67 ± 0.1 %ID/g | tissue uptake at 0.5 h [6, 14]: 0.14 ± 0.04 %ID/g | tissue uptake at 1 h ([6]; hypothalamus, 60 min, iv, rats (Table III), read-out: Regional distribution, hypothalamus): 0.051 ± 0.004 %ID/g | tissue uptake at 2 h [6, 14]: 0.03 ± 0.0002 %ID/g | tissue uptake at 2 min [6, 15]: 0.76 ± 0.12 %ID/g | tissue uptake at 0.5 h [6, 15]: 0.09 ± 0.0001 %ID/g | tissue uptake at 1 h ([6]; striatum, 60 min, iv, rats (Table III), read-out: Regional distribution, striatum): 0.046 ± 0.004 %ID/g | tissue uptake at 2 h [6, 15]: 0.021 ± 0.0007 %ID/g | purity on storage [10]: > 95%
SMILES: COc1ccccc1N1CCN(CCN(C(=O)c2ccc([123I])cc2)c2ccccn2)CC1 [[^123 I] 1a]
